Where two headings read alike, the source gives them in different places.
Experiments:
[1] = system: carbapenem-resistant P. aeruginosa clinical isolate CFS-1292; assay: MIC by modified CLSI broth microdilution against P. aeruginosa CFS-1292 (CAA, CAA + human serum); assay type: cell-based, Pseudomonas aeruginosa; conditions: for MIC (μg/mL) against CFS-1292 in 100% CAA (1st run/2nd run): 1st run or single value
Pseudomonas aeruginosa = assay: microbe, parasite or virus in culture; assay type: cell-based; conditions: P. aeruginosa isolates (n per peptide in table)
Enterobacter cloacae = assay: microbe, parasite or virus in culture; assay type: cell-based; conditions: for MIC50 / MIC100 / MIC Range: E. cloacae isolates (n per peptide in table); for MIC: Enterobacter cloacae ATCC 13047, CAA supplemented with human serum
Description: (§1) Determination of Minimal Inhibitory Concentrations (MIC).
(§2) Additional MIC testing was performed for several peptides against the ESKAPE pathogens Escherichia coli, Enterobacter cloacae, Klebsiella pneumoniae, and Acinetobacter baumannii, in CAA supplemented with human serum (Table D).

Escherichia coli = assay: microbe, parasite or virus in culture; assay type: cell-based; conditions: for MIC50 / MIC100 / MIC Range: E. coli isolates (n per peptide in table); for MIC: Escherichia coli ATCC 25922, CAA supplemented with human serum
Description: as §1, §2

Klebsiella pneumoniae = assay type: cell-based; conditions: for MIC50 / MIC100 / MIC Range: K. pneumoniae isolates (n per peptide in table); for MIC: Klebsiella pneumoniae HM-44, CAA supplemented with human serum
Description: as §1, §2

Acinetobacter baumannii = assay: microbe, parasite or virus in culture; assay type: cell-based; conditions: for MIC50 / MIC100 / MIC Range: A. baumannii isolates (n per peptide in table); for MIC: Acinetobacter baumannii ATCC BAA 747, CAA supplemented with human serum
S. maltophilia = assay: MIC against S. maltophilia isolates; assay type: cell-based, Stenotrophomonas maltophilia; conditions: S. maltophilia isolates (n per peptide in table)
Description: as §1
In addition to the results discussed above in Example 3, further testing was conducted on several Chp peptides. MIC values were determined against different species, including P. aeruginosa, K. pneumoniae, A. baumannii, E. cloacae, E. coli, and S. maltophilia, and the results are presented below in Tables 40-45, wherein n=number of isolates tested for each species and MIC is measured as μg/mL.

[2] = system: carbapenem-resistant bacterial strains; assay: organism not typed; assay type: cell-based
From the text: as §1

[3] = Stability assessment in 100% CAA; assay type: in vitro ADME; set-up: unit not given beside the values
Description: Stability was assessed after incubation in 100% human serum at 37° C. after 10 minutes, 1 hour, and 2 hours.
Stability assessment was further conducted in 100% CAA and rabbit serum using the same methodology discussed above.

M. smegmatis = assay: 45 hr MIC against M. smegmatis (NTM), Mueller Hinton broth; assay type: cell-based, Mycobacterium smegmatis
M. fortuitum = assay: 45 hr MIC against M. fortuitum (NTM); assay type: cell-based, Mycobacterium fortuitum; conditions: M. fortuitum subsp. Fortuitum da Costa Cruz. ATCC 6841
M. avium = assay: 45 hr MIC against M. avium (NTM); assay type: cell-based, Mycobacterium avium; conditions: M. avium Chester ATCC 700898
M. scrofulaceum = assay: 45 hr MIC against M. scrofulaceum (NTM); assay type: cell-based, Mycobacterium scrofulaceum; conditions: M. scrofulaceum Prissick and Masson ATCC 19981
M. intracellulare = assay: 45 hr MIC against M. intracellulare (NTM); assay type: cell-based, Mycobacterium intracellulare; conditions: M. intracellulare (Cuttino and McCabe) Runyon ATCC 13950
[4] = system: M. kansasii Hauduroy ATCC 12478; assay: 45 hr MIC against M. kansasii (NTM), Mueller Hinton broth; assay type: cell-based, Mycobacterium kansasii
[5] = system: Mycobacterium tuberculosis strains
Description: MIC values for various Chp peptides were determined using the CLSI method for broth microdilution in 96-well microtiter format.
Next, MIC values for various Chp peptides were determined using the CLSI method above for broth microdilution in 96-well microtiter format for two different Mycobacterium tuberculosis strains. The MIC was determined as explained above for the NTM strains.

[6] = carbapenem-resistant isolate PA19
[7] = carbapenem-resistant isolate PA20
[8] = carbapenem-resistant isolate PA21
[9] = carbapenem-resistant isolate PA22
[10] = carbapenem-resistant isolate PA23
[11] = carbapenem-resistant isolate PA24
[12] = carbapenem-resistant isolate WLC-452
[13] = Mycobacterium tuberculosis (Zopf) Lehmann and Neumann ATCC 25177
[14] = Mycobacterium tuberculosis (Zopf) Lehmann and Neumann ATCC 35817

Row | Sequence | MIC (μg/mL) against CFS-1292 in 100% CAA (1st run/2nd run) [1] [µg/mL] | MIC50 (Pseudomonas aeruginosa) [µg/mL] | MIC100 (Pseudomonas aeruginosa) [µg/mL] | MIC50 (Klebsiella pneumoniae) [µg/mL] | MIC100 (Klebsiella pneumoniae) [µg/mL] | MIC Range (Klebsiella pneumoniae) [µg/mL] | MIC50 (Acinetobacter baumannii) [µg/mL] | MIC100 (Acinetobacter baumannii) [µg/mL] | MIC Range (Acinetobacter baumannii) [µg/mL] | MIC50 (S. maltophilia) [µg/mL] | MIC100 (S. maltophilia) [µg/mL] | MIC [2, 6] [µg/mL] | MIC [2, 7] [µg/mL] | MIC [2, 8] [µg/mL] | MIC [2, 9] [µg/mL] | MIC [2, 10] [µg/mL] | MIC [2, 11] [µg/mL] | MIC [2, 12] [µg/mL] | MIC (100% CAA) [3] | 45 hr MIC (M. smegmatis; M. smegmatis MC^2 155, Run #1) [µg/mL] | other results
1 | MSKKRSRMSRRRSKKLFSKTALRTKSVNTRPPMRGGFRF [Chp8] | 0.5 | 8 | >8 | 4 | 8 | 2 to 8 | 0.5 | 1 | 0.25 to 2 | >8 | >8 | 1 | >8 | >8 | >8 | >8 | 8 | 4 | 0.5 | 4 | MIC (μg/mL) against CFS-1292 in CAA + […] human serum [1]: 2 µg/mL; MIC50 (Enterobacter cloacae): 2 µg/mL; MIC100 (Enterobacter cloacae): 4 µg/mL; MIC Range (Enterobacter cloacae): 1 to 8 µg/mL; MIC (Enterobacter cloacae): 16 µg/mL; MIC50 (Escherichia coli): 2 µg/mL; MIC100 (Escherichia coli): 4 µg/mL; MIC Range (Escherichia coli): 0.5 to 4 µg/mL; MIC (Escherichia coli): 0.5 µg/mL; MIC (Klebsiella pneumoniae): 4 µg/mL; MIC (Acinetobacter baumannii): 2 µg/mL; 45 hr MIC (M. smegmatis; M. smegmatis MC^2 155, Run #2): 8 µg/mL; 45 hr MIC (M. fortuitum): 2 µg/mL; 45 hr MIC (M. avium): 8 µg/mL; 45 hr MIC (M. scrofulaceum): 4 µg/mL; 45 hr MIC (M. intracellulare): 4 µg/mL; 45 hr MIC [4]: 4 µg/mL; MIC [5, 13]: 32 µg/mL; MIC [5, 14]: 8 µg/mL
2 | MRRPRKMNYKKSKRMFSRTAARTHRKNSLRGSRPMRGGIRL [Gkh1] | 1 | 8 | >8 | 4 | 8 | 1 to 8 | 0.5 | 1 | 0.25 to 2 | >8 | >8 | 2 | >8 | >8 | >8 | >8 | 8 | 2 | 0.5 | 4 | MIC (μg/mL) against CFS-1292 in CAA + […] human serum [1]: 1 µg/mL; MIC50 (Enterobacter cloacae): 1 µg/mL; MIC100 (Enterobacter cloacae): 2 µg/mL; MIC Range (Enterobacter cloacae): 0.5 to 8 µg/mL; MIC (Enterobacter cloacae): 32 µg/mL; MIC50 (Escherichia coli): 2 µg/mL; MIC100 (Escherichia coli): 2 µg/mL; MIC Range (Escherichia coli): 0.5 to 8 µg/mL; MIC (Escherichia coli): 1 µg/mL; MIC (Klebsiella pneumoniae): 0.5 µg/mL; MIC (Acinetobacter baumannii): 2 µg/mL; 45 hr MIC (M. smegmatis; M. smegmatis MC^2 155, Run #2): 4 µg/mL; 45 hr MIC (M. fortuitum): 1 µg/mL; 45 hr MIC (M. avium): 4 µg/mL; 45 hr MIC (M. scrofulaceum): 8 µg/mL; 45 hr MIC (M. intracellulare): 4 µg/mL; 45 hr MIC [4]: 2 µg/mL; MIC [5, 13]: 32 µg/mL; MIC [5, 14]: 4 µg/mL
3 | MRRKVKNTKRHQWRLTHSARSIKRANIMPSNPRGGRRF [Spi2] | 16 | >8 | >8 | >8 | >8 | >8 | 2 | 2 | 2 to 8 | >8 | >8 | >8 | >8 | >8 | >8 | >8 | >8 | >8 | 4 | 4 | MIC (μg/mL) against CFS-1292 in CAA + […] human serum [1]: 0.25 µg/mL; MIC Range (Pseudomonas aeruginosa): >8 µg/mL; MIC50 (Enterobacter cloacae): >8 µg/mL; MIC100 (Enterobacter cloacae): >8 µg/mL; MIC (Enterobacter cloacae): 4 µg/mL; MIC50 (Escherichia coli): 4 µg/mL; MIC100 (Escherichia coli): >8 µg/mL; MIC (Escherichia coli): 0.25 µg/mL; MIC (Klebsiella pneumoniae): 16 µg/mL; MIC (Acinetobacter baumannii): 16 µg/mL; MIC Range (S. maltophilia): >8 µg/mL; 45 hr MIC (M. smegmatis; M. smegmatis MC^2 155, Run #2): 4 µg/mL; 45 hr MIC (M. fortuitum): 4 µg/mL; 45 hr MIC (M. avium): >64 µg/mL; 45 hr MIC (M. scrofulaceum): 8 µg/mL; 45 hr MIC (M. intracellulare): >64 µg/mL; 45 hr MIC [4]: 1 µg/mL; MIC [5, 13]: 8 µg/mL; MIC [5, 14]: 8 µg/mL
4 | MAYRGFKTSRVVKHRVRRRWFNHRRRYR [Spi1] | 2 | 4 | 8 | 2 | 4 | 2 to 4 | 1 | 1 | 1 | 2 | 2 | 2 | 4 | 8 | 4 | 8 | 4 | 2 | 1 | 2 | MIC (μg/mL) against CFS-1292 in CAA + […] human serum [1]: 0.25 µg/mL; MIC Range (Pseudomonas aeruginosa): 2 to 8 µg/mL; 45 hr MIC (M. smegmatis; M. smegmatis MC^2 155, Run #2): 16 µg/mL; 45 hr MIC (M. fortuitum): 8 µg/mL; 45 hr MIC (M. avium): >64 µg/mL; 45 hr MIC (M. scrofulaceum): 2 µg/mL; 45 hr MIC (M. intracellulare): 4 µg/mL; 45 hr MIC [4]: 0.5 µg/mL; MIC [5, 13]: 32 µg/mL; MIC [5, 14]: 16 µg/mL
5 | MSLRRHKLSRKASKRIFRKGASRTKTLNTRATPMRGGFRI [Chp9] | 8 | >8 | >8 | >8 | >8 | >8 | 2 | 2 | 0.5 to 2 | >8 | >8 | 8 | >8 | >8 | >8 | >8 | >8 | 8 | 2 | 4 | MIC50 (Enterobacter cloacae): 4 µg/mL; MIC100 (Enterobacter cloacae): >8 µg/mL; MIC (Enterobacter cloacae): 32 µg/mL; MIC50 (Escherichia coli): 2 µg/mL; MIC100 (Escherichia coli): 8 µg/mL; MIC Range (Escherichia coli): 0.5 to 8 µg/mL; MIC (Escherichia coli): 1 µg/mL; MIC (Klebsiella pneumoniae): 1 µg/mL; MIC (Acinetobacter baumannii): 4 µg/mL; 45 hr MIC (M. smegmatis; M. smegmatis MC^2 155, Run #2): 8 µg/mL; 45 hr MIC (M. fortuitum): 4 µg/mL; 45 hr MIC (M. avium): >64 µg/mL; 45 hr MIC (M. scrofulaceum): 8 µg/mL; 45 hr MIC (M. intracellulare): 4 µg/mL; 45 hr MIC [4]: 8 µg/mL; MIC [5, 13]: 32 µg/mL; MIC [5, 14]: 16 µg/mL
